Measurements reported in ChEMBL document CHEMBL5518240 (J Med Chem, 2024).

Assays:
[1] = Half life in male ICR mouse at 1 mg/kg, iv measured upto 24 hrs by LC-MS/MS analysis; format: ADME, organism-based; details: in vivo
[2] = Drug exposure in CB17 SCID mouse xenografted with human VCaP cells assessed compound concentration in tumor at 3 mg/kg, po measured after 3 hrs by LC-MS/MS analysis; format: ADME, organism-based, Neoplasm; details: read-out: Drug uptake
[3] = target: T1, Protein cereblon/CREB-binding protein (Homo sapiens, UniProt Q92793+Q96SW2); assay: PROTAC activity at CBP/CRBN in AR positive human VCaP cells assessed as maximal protein degradation at 0.46 nM incubated for 4 hrs by Western blot analysis relative to control; format: cell-based
Target sequence in this assay (Q92793 2-2442 limits assumed): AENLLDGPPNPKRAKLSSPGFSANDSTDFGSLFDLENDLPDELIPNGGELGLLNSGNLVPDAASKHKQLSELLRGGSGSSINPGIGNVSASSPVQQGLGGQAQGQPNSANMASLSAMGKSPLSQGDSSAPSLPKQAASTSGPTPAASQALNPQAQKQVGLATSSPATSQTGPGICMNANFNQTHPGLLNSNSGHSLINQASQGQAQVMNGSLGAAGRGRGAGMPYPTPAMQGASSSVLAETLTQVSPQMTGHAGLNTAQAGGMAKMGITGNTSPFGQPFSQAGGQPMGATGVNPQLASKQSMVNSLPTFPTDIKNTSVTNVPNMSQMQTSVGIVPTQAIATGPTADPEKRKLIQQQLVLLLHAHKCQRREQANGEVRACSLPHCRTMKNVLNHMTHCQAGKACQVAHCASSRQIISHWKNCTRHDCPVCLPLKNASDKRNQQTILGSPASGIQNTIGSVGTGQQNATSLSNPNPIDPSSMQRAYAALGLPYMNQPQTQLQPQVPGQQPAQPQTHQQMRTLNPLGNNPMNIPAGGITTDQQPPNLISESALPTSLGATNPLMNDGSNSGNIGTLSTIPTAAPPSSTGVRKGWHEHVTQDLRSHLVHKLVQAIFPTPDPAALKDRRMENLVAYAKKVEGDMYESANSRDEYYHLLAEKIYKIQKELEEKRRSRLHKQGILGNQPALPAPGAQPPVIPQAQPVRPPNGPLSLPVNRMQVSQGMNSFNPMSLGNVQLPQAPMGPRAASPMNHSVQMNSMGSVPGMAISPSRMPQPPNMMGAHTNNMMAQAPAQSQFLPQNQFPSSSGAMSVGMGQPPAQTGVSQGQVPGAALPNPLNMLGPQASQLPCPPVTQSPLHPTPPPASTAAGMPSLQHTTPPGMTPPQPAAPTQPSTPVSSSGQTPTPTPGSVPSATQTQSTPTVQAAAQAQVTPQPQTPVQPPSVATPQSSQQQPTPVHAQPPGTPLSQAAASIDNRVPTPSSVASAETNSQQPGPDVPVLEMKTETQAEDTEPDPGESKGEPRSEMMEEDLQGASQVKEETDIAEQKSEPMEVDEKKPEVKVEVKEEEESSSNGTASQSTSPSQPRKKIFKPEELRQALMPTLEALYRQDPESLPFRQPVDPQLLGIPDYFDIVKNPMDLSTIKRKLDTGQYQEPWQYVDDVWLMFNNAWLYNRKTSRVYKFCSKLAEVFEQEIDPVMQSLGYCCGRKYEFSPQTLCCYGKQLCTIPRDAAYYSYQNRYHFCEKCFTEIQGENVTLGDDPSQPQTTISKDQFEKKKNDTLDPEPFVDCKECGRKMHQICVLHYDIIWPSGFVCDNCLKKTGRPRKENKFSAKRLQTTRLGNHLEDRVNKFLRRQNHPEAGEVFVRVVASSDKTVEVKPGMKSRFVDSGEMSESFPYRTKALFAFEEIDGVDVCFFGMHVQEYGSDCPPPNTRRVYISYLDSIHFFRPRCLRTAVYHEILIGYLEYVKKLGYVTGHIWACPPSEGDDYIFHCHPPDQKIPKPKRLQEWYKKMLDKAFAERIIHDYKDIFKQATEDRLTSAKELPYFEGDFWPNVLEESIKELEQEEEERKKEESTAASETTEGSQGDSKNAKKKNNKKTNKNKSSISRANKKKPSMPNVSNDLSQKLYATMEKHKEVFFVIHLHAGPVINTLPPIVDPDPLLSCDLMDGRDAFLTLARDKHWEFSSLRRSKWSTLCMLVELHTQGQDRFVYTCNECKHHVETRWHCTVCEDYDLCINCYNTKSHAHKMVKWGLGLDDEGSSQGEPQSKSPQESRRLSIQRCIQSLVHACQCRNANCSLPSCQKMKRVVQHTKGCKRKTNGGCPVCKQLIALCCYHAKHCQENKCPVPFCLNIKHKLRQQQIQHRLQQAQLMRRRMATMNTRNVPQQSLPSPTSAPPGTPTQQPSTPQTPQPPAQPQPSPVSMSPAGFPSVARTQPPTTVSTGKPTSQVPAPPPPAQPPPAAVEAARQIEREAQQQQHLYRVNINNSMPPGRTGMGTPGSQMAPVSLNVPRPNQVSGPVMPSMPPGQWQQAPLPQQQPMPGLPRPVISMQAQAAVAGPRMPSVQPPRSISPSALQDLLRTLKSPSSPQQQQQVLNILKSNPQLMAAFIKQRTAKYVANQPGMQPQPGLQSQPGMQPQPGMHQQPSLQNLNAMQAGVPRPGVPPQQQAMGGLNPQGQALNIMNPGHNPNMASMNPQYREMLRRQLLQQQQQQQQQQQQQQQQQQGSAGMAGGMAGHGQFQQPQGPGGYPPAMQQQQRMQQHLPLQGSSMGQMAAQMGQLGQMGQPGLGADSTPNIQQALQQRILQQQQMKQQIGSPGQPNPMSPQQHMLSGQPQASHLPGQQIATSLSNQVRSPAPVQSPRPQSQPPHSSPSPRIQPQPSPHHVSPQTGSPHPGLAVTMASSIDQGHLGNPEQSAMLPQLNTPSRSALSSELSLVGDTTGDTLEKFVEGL
Target sequence in this assay (Q96SW2 whole entry partner): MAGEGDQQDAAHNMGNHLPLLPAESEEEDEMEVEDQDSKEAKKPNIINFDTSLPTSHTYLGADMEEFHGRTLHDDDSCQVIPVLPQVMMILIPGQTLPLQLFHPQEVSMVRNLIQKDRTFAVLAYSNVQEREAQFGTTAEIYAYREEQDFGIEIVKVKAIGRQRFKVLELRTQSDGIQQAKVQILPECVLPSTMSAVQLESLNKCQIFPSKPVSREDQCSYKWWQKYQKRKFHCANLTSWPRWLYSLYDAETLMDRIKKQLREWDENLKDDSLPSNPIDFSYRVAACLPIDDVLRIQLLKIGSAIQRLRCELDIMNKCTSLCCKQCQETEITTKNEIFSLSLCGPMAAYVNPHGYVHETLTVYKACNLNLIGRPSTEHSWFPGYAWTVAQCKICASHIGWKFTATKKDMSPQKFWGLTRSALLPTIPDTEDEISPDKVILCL

[4] = target: T2, Protein cereblon/Histone acetyltransferase p300 (Homo sapiens, UniProt Q09472+Q96SW2); assay: PROTAC activity at p300/CRBN in human LNCaP cells assessed as protein degradation incubated for 4 hrs by Western blot analysis; format: cell-based
[5] = Oral bioavailability in male ICR mouse at 3 mg/kg measured upto 24 hrs by LC-MS/MS analysis; format: ADME, organism-based; details: in vivo
[6] = Cmax in male ICR mouse at 3 mg/kg, po measured upto 24 hrs by LC-MS/MS analysis; format: ADME, organism-based; details: in vivo
[7] = target: T1, Protein cereblon/CREB-binding protein; assay: PROTAC activity at CBP/CRBN in human LNCaP cells assessed as protein degradation incubated for 4 hrs by Western blot analysis; format: cell-based
[8] = target: T1, Protein cereblon/CREB-binding protein; assay: In vivo PROTAC activity at p300/CRBN in human VCaP cells xenografted in CB17 SCID mouse assessed as reduction in CBP protein at 1 mg/kg, po measured after 24 hrs; format: functional, organism-based; design: scale not given: the % may be the effect or the level left
Target sequence in this assay (Q92793 2-2442 limits assumed): as the sequence (Q92793 2-2442 limits assumed) above
Target sequence in this assay (Q96SW2 whole entry partner): as the sequence (Q96SW2 whole entry partner) above

[9] = target: T2, Protein cereblon/Histone acetyltransferase p300; assay: PROTAC activity at p300/CRBN in AR positive human VCaP cells assessed as maximal protein degradation at 111 nM incubated for 4 hrs by Western blot analysis relative to control; format: cell-based
[10] = Reduction in c-Myc gene expression in AR positive human VCaP cells assessed as reduction in mRNA level at 1 nM measured after 6 hrs by qRT-PCT analysis relative to control; format: functional
[11] = target: T1, Protein cereblon/CREB-binding protein; assay: PROTAC activity at CBP/CRBN in human VCaP cells assessed as maximal protein degradation at 1 uM incubated for 4 hrs by Western blot analysis relative to control; format: cell-based
Target sequence in this assay (Q92793 2-2442 limits assumed): as the sequence (Q92793 2-2442 limits assumed) above
Target sequence in this assay (Q96SW2 whole entry partner): as the sequence (Q96SW2 whole entry partner) above

[12] = target: T1, Protein cereblon/CREB-binding protein; assay: In vivo PROTAC activity at CBP/CRBN in human VCaP cells xenografted in SCID mouse assessed as reduction in CBP protein at 1 mg/kg, po measured after 24 hrs; format: functional, organism-based; design: scale not given: the % may be the effect or the level left
Target sequence in this assay (Q92793 2-2442 limits assumed): as the sequence (Q92793 2-2442 limits assumed) above
Target sequence in this assay (Q96SW2 whole entry partner): as the sequence (Q96SW2 whole entry partner) above

VCaP [13] = assay: Antitumor activity against human VCaP cells xenografted in CB17 SCID mouse model assessed as tumor growth inhibition at 1 mg/kg, po qod scheduled 5 days in a week measured on day 63; format: functional; details: 1512 h, time 63 day, read-out: TGI
[14] = Reduction in AR gene expression in AR positive human 22Rv1 cells assessed as reduction in mRNA level at 10 nM measured after 6 hrs by qRT-PCT analysis relative to control; format: functional, CWR22R
[15] = Toxicity in CB17 SCID mouse xenografted with human VCaP cells assessed as signs of toxicity at 0.3 to 1 mg/kg, po qd scheduled 5 days in a week measured on day 63; format: organism-based; details: in vivo, 120 h, dose 0.3-1 mg/kg, time 5 day
CWR22R [16] = assay: Potency index, ratio of GNE-049 IC50 to test compound IC50 for antiproliferative activity against AR positive human 22Rv1 cells assessed inhibition of cell growth measured after 4 days by CellTiter-Glo Luminescent cell viability assay; format: functional; details: time 4 day
[17] = Clearance in male ICR mouse at 1 mg/kg, iv measured upto 24 hrs by LC-MS/MS analysis; format: ADME, organism-based; details: in vivo
[18] = Efflux ratio of apparent permeability coefficient across basolateral to apical side over apical to basolateral side in human Caco-2 cells at 10 uM incubated for 120 mins by LC-MS/MS analysis; format: ADME, cell-based; details: caco-2, 2 h
[19] = target: T2, Protein cereblon/Histone acetyltransferase p300; assay: PROTAC activity at p300/CRBN in human 22Rv1 cells assessed as reduction in protein level at 100 nM incubated for 4 hrs by multiplexed quantitative proteomics analysis relative to control; format: cell-based; design: scale not given: the % may be the effect or the level left
[20] = Plasma concentration in CB17 SCID mouse xenografted with human VCaP cells at 3 mg/kg, po measured after 24 hrs by LC-MS/MS analysis; format: ADME, organism-based
[21] = target: T1, Protein cereblon/CREB-binding protein; assay: PROTAC activity at CBP/CRBN in human LNCaP cells assessed as maximal protein degradation at 1 uM incubated for 4 hrs by Western blot analysis relative to control; format: cell-based
Target sequence in this assay (Q92793 2-2442 limits assumed): as the sequence (Q92793 2-2442 limits assumed) above
Target sequence in this assay (Q96SW2 whole entry partner): as the sequence (Q96SW2 whole entry partner) above

[22] = Volume of distribution at steady state in male ICR mouse at 1 mg/kg, iv measured upto 24 hrs by LC-MS/MS analysis; format: ADME, organism-based; details: in vivo, read-out: Vdss
[23] = target: T2, Protein cereblon/Histone acetyltransferase p300; assay: PROTAC activity at p300/CRBN in AR positive human VCaP cells assessed as maximal protein degradation at 37 nM incubated for 4 hrs by Western blot analysis relative to control; format: cell-based
[24] = target: T1, Protein cereblon/CREB-binding protein; assay: In vivo PROTAC activity at CBP/CRBN in human VCaP cells xenografted in SCID mouse assessed as reduction in CBP protein at 3 mg/kg, po measured after 24 hrs; format: functional, organism-based; design: scale not given: the % may be the effect or the level left
Target sequence in this assay (Q92793 2-2442 limits assumed): as the sequence (Q92793 2-2442 limits assumed) above
Target sequence in this assay (Q96SW2 whole entry partner): as the sequence (Q96SW2 whole entry partner) above

[25] = target: T2, Protein cereblon/Histone acetyltransferase p300; assay: PROTAC activity at p300/CRBN in AR positive human VCaP cells assessed as maximal protein degradation at 0.46 nM incubated for 4 hrs by Western blot analysis relative to control; format: cell-based
[26] = Reduction in KLK3 gene expression in AR positive human 22Rv1 cells assessed as reduction in mRNA level at 10 nM measured after 6 hrs by qRT-PCT analysis relative to control; format: functional, CWR22R
CWR22R [27] = assay: Reduction in AR gene expression in AR positive human 22Rv1 cells assessed as reduction in mRNA level measured after 6 hrs by qRT-PCT analysis relative to control; format: functional, cell-based; details: dose 0.1-1000 nM
[28] = Reduction in AR gene expression in AR positive human VCaP cells assessed as reduction in mRNA level at 1 nM measured after 6 hrs by qRT-PCT analysis relative to control; format: functional
[29] = target: T2, Protein cereblon/Histone acetyltransferase p300; assay: PROTAC activity at p300/CRBN in human LNCaP cells assessed as maximal protein degradation at 1 uM incubated for 4 hrs by Western blot analysis relative to control; format: cell-based
VCaP [30] = assay: Reduction in KLK3 gene expression in AR positive human VCaP cells assessed as reduction in mRNA level measured after 6 hrs by qRT-PCT analysis relative to control; format: functional, cell-based; details: dose 0.1-1000 nM
[31] = target: T1, Protein cereblon/CREB-binding protein; assay: PROTAC activity at CBP/CRBN in AR positive human VCaP cells assessed as maximal protein degradation at 37 nM incubated for 4 hrs by Western blot analysis relative to control; format: cell-based
CWR22R [32] = assay: Antiproliferative activity against AR positive human 22Rv1 cells assessed inhibition of cell growth measured after 4 days by CellTiter-Glo Luminescent cell viability assay; format: functional, cell-based; details: 22Rv1, 96 h
[33] = target: T2, Protein cereblon/Histone acetyltransferase p300; assay: PROTAC activity at p300/CRBN in AR positive human VCaP cells assessed as maximal protein degradation at 0.15 nM incubated for 4 hrs by Western blot analysis relative to control; format: cell-based
VCaP [34] = assay: Potency index, ratio of GNE-049 IC50 to test compound IC50 for antiproliferative activity against AR positive human VCaP cells assessed inhibition of cell growth measured after 4 days by CellTiter-Glo Luminescent cell viability assay; format: functional; details: time 4 day

Work on `CC(=O)N1CCc2c(c(N3CCCc4cc(-c5cnn(C)c5)c(C(F)F)cc43)nn2[C@H]2CC[C@H](CN3CCN(c4ccc5c(c4)C(=O)N(C4CCC(=O)NC4=O)C5=O)CC3)CC2)C1` (some centres undefined) yielded a half-life [1] of 2.8 h, a concentration at 3 h [2] of 0.141 µg/mL and an Activity [3] of 76%. It also gave a DC50 [4] of 0.4 nM, a bioavailability [5] of 50% and a Cmax [6] of 2.49 µg/mL. The DC50 [7] was 0.3 nM, the Activity [8] was over 95% and the Activity [9] was 100%. For the same molecule, the inhibition at 0.001 µM [10] was over 95%, the Emax [11] was over 95% and the Activity [12] was over 95%. The inhibition in vivo at 1 mg/kg (VCaP [13]) was 71%, the inhibition at 0.01 µM [14] was 43% and the Activity [15] was “Non-Toxic”. The “Ratio IC50” value (CWR22R [16]) was 100, the clearance [17] was 0.102 L/h/kg and the Ratio [18] was 1.2. The Activity [19] was 79%, the concentration at 24 h [20] was 0.021 µg/mL and the Emax [21] was 90%. It also gave a Vd [22] of 0.4 L/kg, an Activity [23] of 100% and an Activity [24] of over 95%. For the same molecule, the Activity [25] was 80%, the inhibition at 0.01 µM [26] was 75% and the inhibition (CWR22R [27]) was “Dose-Dependent Effect”. The inhibition at 0.001 µM [28] was 77%, the Emax [29] was 95% and the inhibition (VCaP [30]) was “Dose-Dependent Effect”. The Activity [31] was 98%, the IC50 (CWR22R [32]) was 1.2 nM and the Activity [33] was 50%. The “Ratio IC50” value (VCaP [34]) was 100.
